Key:
[1] = system: 5'GAG/3'CCC internal loop RNA (Cy5-labeled model of pri-miR-27a's Drosha site) (RNA, mismatch bulge abasic) CUGAGGUGAAACAUCCCAG; experiment: microscale thermophoresis; conditions: 1x Binding Buffer; for Kd: 0.1% Tween-20, 10 nM Cy5-RNA, room temperature
[2] = system: 5'CAG/3'GCC internal loop RNA (closing GC mutated to CG) (RNA, mismatch bulge abasic) CUCAGGUGAAACAUCCGAG; experiment: microscale thermophoresis; conditions: 1x Binding Buffer, 0.1% Tween-20, room temperature; for Kd: no saturable binding
[3] = system: fully paired RNA (loop mutated to a base pair) (RNA, hairpin) CUGAGGUGAAACAUCUCAG; experiment: microscale thermophoresis; conditions: 1x Binding Buffer, 0.1% Tween-20, room temperature
[4] = system: mutated pri-miR-27a (both 5'GAG/3'CCC loops mutated to base pairs) (RNA, miRNA) GAGAGAGGCCCCGAAGCCUGUGCCUGGCCUGAGGAGCAGGGCUUAGCUGCUUGUGAGCAGGGUCCACACCAAGUCGUGUUCACAGUGGCUAAGUUCCGCUCCUCAGGCCCUCACCUCCUCUGGCCUUGCC; experiment: competitive binding assay; conditions: 100 nM compound; competes with Cy5-labeled model of the Drosha site
[5] = system: WT pri-miR-27a (unlabeled miR-27a precursor) (RNA, miRNA) GAGAGAGGCCCCGAAGCCUGUGCCUGGCCUGAGGAGCAGGGCUUAGCUGCUUGUGAGCAGGGUCCACACCAAGUCGUGUUCACAGUGGCUAAGUUCCGCCCCCCAGGCCCUCACCUCCUCUGGCCUUGCC; experiment: competitive binding assay; conditions: 100 nM compound; competes with Cy5-labeled model of the Drosha site

SMILES	binding ([1]; 0.1% Tween-20, room temperature)	binding [2]	binding [3]	Kd [1] [nM]	binding [4]	Kd [5] [nM]	Kd [2] [nM]	binding ([3]; no saturable binding)
C#CCN(CC(N)=O)C(=O)C[C@H](Cc1c[nH]c2ccccc12)NC(=O)[C@@H]1C[C@@H](NC(=O)Cn2c(=O)[nH]c3ccccc3c2=O)CN1	no	no	no					
C#CCN(CC(N)=O)C(=O)C[C@H](Cc1c[nH]c2ccccc12)NC(=O)[C@@H]1C[C@H](NC(=O)Cn2c(=O)[nH]c3ccccc3c2=O)CN1				90 ± 20	no	40 ± 30	> 50000	no
C#CCN(CC(N)=O)C(=O)[C@H](Cc1ccccc1C#N)NC(=O)[C@@H]1C[C@H](NC(=O)[C@H]2CCCO2)CN1				530 ± 90			> 50000	no
C#CCN(CC(N)=O)C(=O)[C@@H]1CCN1C(=O)[C@@H]1C[C@H](N)CN1C(=O)c1ccccc1C(=O)N1CCOCC1				700 ± 100			> 50000	no

From paper PMC8833215 (2022)
